Key:
Type in all cases: biochemical
cathepsin B = biological target: T1, cathepsin B (Homo sapiens, UniProt P07858); experiment: Cathepsin B enzyme inhibition in vitro (kinetic fluorescence assay); conditions: Ki(cathepsin B)/Ki(calpain) ratio
T1 construct: cathepsin B—isolated from human liver; purchased Calbiochem 219362; host or cells: human liver (tissue isolate)
Method: (§1) Testing for blockade of the corresponding enzymic activities was carried out by means of kinetic fluorescence assays (excitation 390 nm, emission 460 nm).
(§2) Apparent Ki values were calculated from the experimentally determined IC50 values by the Cheng-Prussoff relation assuming a reversible competitive enzyme inhibition. The Km values of the substrates used under the assay conditions indicated above were: 90 μM (Z-Phe-Arg-AMC, cathepsin B), 10 μM (Z-Gly-Pro-Arg-AMC, cathepsin K), 2 μM (Z-Phe-Arg-AMC, cathepsin L), and 30 μM (Z-Val-Val-Arg-AMC, cathepsin S).
(§3) The indicated Ki values are averages of the inhibition constants calculated on the basis of 2 to 4 independent dose-effect plots.
(§4) • 1. Calpain I: • 20 nM calpain-I—isolated from human erythrocytes (Calbiochem #208713), 100 μM Suc-Leu-Tyr-AMC (Bachem #1-1355) as substrate in buffer with 62 mM imidazole, 0.3 mM CaCl2, 0.10% CHAPS, 0.05% BSA, 1 mM DTT at pH 7.3 and room temperature. • 2. Cathepsin B: • 0.25 nM cathepsin B—isolated from human liver (Calbiochem #219362), 100 μM Z-Phe-Arg-AMC (Bachem #1-1160) as substrate 50 mM MES, 2 mM EDTA, 0.05% Brij 35, 2.5 mM L-cysteine, pH 6.0, room temperature. • 3. Cathepsin K: • 3 nM cathepsin K—activated from recombinant human procathepsin K from E. coli (Calbiochem #342001), 10 μM Z-Gly-Pro-Arg-AMC (Biomol #P-142) as substrate in 50 mM MES, 2 mM EDTA, 0.05% Brij 35, 2.5 mM L-cysteine, pH 6.0, room temperature. • 4. Cathepsin L: • 1 nM cathepsin L—isolated from human liver (Calbiochem #219402), 2 μM Z-Phe-Arg-AMC (Bachem #1-1160) as substrate in 50 mM MES, 2 mM EDTA, 0.05% Brij 35, 2.5 mM L-cysteine, pH 6.0, room temperature. • 5. Cathepsin S: • 0.5 nM recombinant human cathepsin S from E. coli (Calbiochem #219343), 20 μM Z-Val-Val-Arg-AMC (Bachem #1-1540) as substrate in 50 mM MES, 2 mM EDTA, 0.05% Brij 35, 2.5 mM L-cysteine, pH 6.0, room temperature.

cathepsin K = biological target: T2, cathepsin K (Homo sapiens, UniProt P43235); experiment: Cathepsin K enzyme inhibition in vitro (kinetic fluorescence assay); conditions: Ki(cathepsin K)/Ki(calpain) ratio
T2 construct: purchased Calbiochem 342001; host or cells: E. coli
T2 sequence (P43235 115-329): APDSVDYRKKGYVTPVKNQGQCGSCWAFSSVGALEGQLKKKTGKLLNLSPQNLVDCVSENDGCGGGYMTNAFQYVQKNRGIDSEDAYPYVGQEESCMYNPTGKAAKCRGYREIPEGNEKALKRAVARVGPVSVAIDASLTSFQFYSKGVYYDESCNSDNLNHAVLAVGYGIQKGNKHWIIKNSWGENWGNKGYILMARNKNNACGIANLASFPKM
Method: as §1, §2, §3, §4

cathepsin L = biological target: T3, cathepsin L (Homo sapiens, UniProt P07711); experiment: Cathepsin L enzyme inhibition in vitro (kinetic fluorescence assay); conditions: Ki(cathepsin L)/Ki(calpain) ratio
T3 construct: cathepsin L—isolated from human liver; purchased Calbiochem 219402; host or cells: human liver (tissue isolate)
T3 sequence (P07711 114-333): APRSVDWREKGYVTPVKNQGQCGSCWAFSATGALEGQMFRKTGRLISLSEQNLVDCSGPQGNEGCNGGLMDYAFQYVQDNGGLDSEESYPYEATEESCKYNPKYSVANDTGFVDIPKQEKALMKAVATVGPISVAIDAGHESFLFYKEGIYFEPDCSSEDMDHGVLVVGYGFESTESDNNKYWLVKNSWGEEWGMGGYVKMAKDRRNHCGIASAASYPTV
Method: as §1, §2, §3, §4

cathepsin S = biological target: T4, cathepsin S (Homo sapiens, UniProt P25774); experiment: Cathepsin S enzyme inhibition in vitro (kinetic fluorescence assay); conditions: Ki(cathepsin S)/Ki(calpain) ratio
T4 construct: purchased Calbiochem 219343; host or cells: E. coli
T4 sequence (P25774 115-331): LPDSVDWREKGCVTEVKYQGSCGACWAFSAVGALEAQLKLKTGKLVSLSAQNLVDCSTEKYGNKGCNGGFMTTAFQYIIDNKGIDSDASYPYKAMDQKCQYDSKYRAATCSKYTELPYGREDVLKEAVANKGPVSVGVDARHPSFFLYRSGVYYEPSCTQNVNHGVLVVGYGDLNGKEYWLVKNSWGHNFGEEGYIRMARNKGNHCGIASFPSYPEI
Procedure, shortened: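 Kinetic fluorescence (ex 390/em 460 nm), RT. Calpain-I: 20 nM erythrocyte-derived, 100 μM Suc-Leu-Tyr-AMC, imidazole/CaCl2, pH 7.3. Cathepsins, pH 6.0 MES/EDTA/cysteine: B 0.25 nM liver, 100 μM Z-Phe-Arg-AMC; L 1 nM liver, 2 μM Z-Phe-Arg-AMC; S 0.5 nM recombinant, 20 μM Z-Val-Val-Arg-AMC. Cheng-Prusoff Ki, mean of 2–4 curves.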

NC(=O)C(=O)C(Cc1ccccc1)NC(=O)c1cc(Cl)cnc1-n1ccc(-c2ccccc2)n1 (stereo not shown) [Example 27, N-(3-Amino-1-benzyl-2,3-dioxopropyl)-5-chloro-2-(3-phenyl-1H-pyrazol-1-yl)nicotin-amide]
Sel cat. B (cathepsin B): ++ (++ means a Ki(cathepsin B)/Ki(calpain) ratio of ≧30) | Sel cat. K (cathepsin K): + (+ means 10≦Ki(cathepsin K)/Ki(calpain)<30) | Sel cat. L (cathepsin L): + (+ means 30≦Ki(cathepsin L)/Ki(calpain)<50)

Cl.NC(=O)C(=O)C(Cc1ccccc1)NC(=O)c1cccnc1-n1ccc(-c2ccc(N3CCOCC3)cc2)n1 (stereo not shown) [Example 29, N-(3-Amino-1-benzyl-2,3-dioxopropyl)-2-[3-(4-morpholin-4-ylphenyl)-1H-pyrazol-1-yl]nicotinamide hydrochloride]
Sel cat. S (cathepsin S): ++ (++ means a Ki(cathepsin S)/Ki(calpain) ratio of ≧100) | Sel cat. K (cathepsin K): + (+ means 10≦Ki(cathepsin K)/Ki(calpain)<30) | Sel cat. L (cathepsin L): ++ (++ means a Ki(cathepsin L)/Ki(calpain) ratio of ≧50)

NC(=O)C(=O)C(Cc1ccccc1)NC(=O)c1cc(Cl)cnc1-n1ccc(-c2ccc(N3CCOCC3)cc2)n1 (stereo not shown) [Example 31, N-(3-Amino-1-benzyl-2,3-dioxopropyl)-5-chloro-2-[3-(4-morpholin-4-ylphenyl)-1H-pyrazol-1-yl]nicotinamide]
Sel cat. B (cathepsin B): ++ (++ means a Ki(cathepsin B)/Ki(calpain) ratio of ≧30) | Sel cat. K (cathepsin K): + (+ means 10≦Ki(cathepsin K)/Ki(calpain)<30) | Sel cat. L (cathepsin L): + (+ means 30≦Ki(cathepsin L)/Ki(calpain)<50)

NC(=O)C(=O)C(CC1CCCCC1)NC(=O)c1cccnc1-n1ccc(-c2ccccc2)n1 (stereo not shown) [Example 66, N-[3-Amino-1-(cyclohexylmethyl)-2,3-dioxopropyl]-2-(3-phenyl-1H-pyrazol-1-yl)nicotinamide]
Sel cat. S (cathepsin S): ++ (++ means a Ki(cathepsin S)/Ki(calpain) ratio of ≧100) | Sel cat. K (cathepsin K): + (+ means 10≦Ki(cathepsin K)/Ki(calpain)<30) | Sel cat. L (cathepsin L): + (+ means 30≦Ki(cathepsin L)/Ki(calpain)<50)

CN1CCN(c2ccc(-c3ccn(-c4ncccc4C(=O)NC(Cc4ccccc4)C(=O)C(N)=O)n3)cc2)CC1 (stereo not shown) [Example 68, N-(3-Amino-1-benzyl-2,3-dioxopropyl)-2-{3-[4-(4-methylpiperazin-1-yl)phenyl]-1H-pyrazol-1-yl}nicotinamide]
Sel cat. S (cathepsin S): ++ (++ means a Ki(cathepsin S)/Ki(calpain) ratio of ≧100) | Sel cat. K (cathepsin K): + (+ means 10≦Ki(cathepsin K)/Ki(calpain)<30)

NC(=O)C(=O)C(Cc1ccccc1)NC(=O)c1cccnc1-n1ccc(-c2cccc(N3CCCC3)c2)n1 (stereo not shown) [Example 74, N-(3-Amino-1-benzyl-2,3-dioxopropyl)-2-[3-(3-pyrrolidin-1-ylphenyl)-1H-pyrazol-1-yl]nicotinamide]
Sel cat. B (cathepsin B): ++ (++ means a Ki(cathepsin B)/Ki(calpain) ratio of ≧30) | Sel cat. S (cathepsin S): ++ (++ means a Ki(cathepsin S)/Ki(calpain) ratio of ≧100) | Sel cat. K (cathepsin K): ++ (++ means a Ki(cathepsin K)/Ki(calpain) ratio of ≧30)

NC(=O)C(=O)C(Cc1ccccc1)NC(=O)c1cccnc1-n1ccc(-c2ccc3c(c2)CCO3)n1 (stereo not shown) [Example 75, N-(3-Amino-1-benzyl-2,3-dioxopropyl)-2-[3-(2,3-dihydrobenzo[b]furan-5-yl)-1H-pyrazol-1-yl]nicotinamide]
Sel cat. S (cathepsin S): ++ (++ means a Ki(cathepsin S)/Ki(calpain) ratio of ≧100) | Sel cat. K (cathepsin K): + (+ means 10≦Ki(cathepsin K)/Ki(calpain)<30) | Sel cat. L (cathepsin L): ++ (++ means a Ki(cathepsin L)/Ki(calpain) ratio of ≧50)

N#Cc1cnc(-n2ccc(-c3ccccc3)n2)c(C(=O)NC(Cc2ccccc2)C(=O)C(N)=O)c1 (stereo not shown) [Example 82, N-(3-Amino-1-benzyl-2,3-dioxopropyl)-5-cyano-2-(3-phenyl-1H-pyrazol-1-yl)nicotinamide]
Sel cat. B (cathepsin B): ++ (++ means a Ki(cathepsin B)/Ki(calpain) ratio of ≧30) | Sel cat. K (cathepsin K): ++ (++ means a Ki(cathepsin K)/Ki(calpain) ratio of ≧30) | Sel cat. L (cathepsin L): ++ (++ means a Ki(cathepsin L)/Ki(calpain) ratio of ≧50)

NC(=O)C(=O)C(Cc1ccc(Br)cc1)NC(=O)c1cccnc1-n1ccc(-c2ccccc2)n1 (stereo not shown) [Example 122, N-{3-Amino-1-[(4-bromophenyl)methyl]-2,3-dioxopropyl}-2-(3-phenyl-1H-pyrazol-1-yl)pyridine-3-carboxamide]
Sel cat. B (cathepsin B): ++ (++ means a Ki(cathepsin B)/Ki(calpain) ratio of ≧30) | Sel cat. S (cathepsin S): ++ (++ means a Ki(cathepsin S)/Ki(calpain) ratio of ≧100) | Sel cat. L (cathepsin L): ++ (++ means a Ki(cathepsin L)/Ki(calpain) ratio of ≧50)

CC(C)c1ccc2c(c1)-c1nn(-c3ncccc3C(=O)NC(Cc3ccccc3)C(=O)C(N)=O)cc1CO2 (stereo not shown) [Example 144, N-[3-Amino-2,3-dioxo-1-(phenylmethyl)propyl]-2-[8-(1-methylethyl)chromeno[4,3-c]pyrazol-2(4H)-yl]pyridine-3-carboxamide]
Sel cat. B (cathepsin B): + (+ means 10≦Ki(cathepsin B)/Ki(calpain)<30) | Sel cat. S (cathepsin S): ++ (++ means a Ki(cathepsin S)/Ki(calpain) ratio of ≧100) | Sel cat. L (cathepsin L): ++ (++ means a Ki(cathepsin L)/Ki(calpain) ratio of ≧50)

COc1ccc(OC)c(-c2ccn(-c3ncccc3C(=O)NC(Cc3ccccc3)C(=O)C(N)=O)n2)c1 (stereo not shown) [Example 151, N-[3-Amino-2,3-dioxo-1-(phenylmethyl)propyl]-2-{3-[2,5-bis(methyloxy)phenyl]-1H-pyrazol-1-yl}pyridine-3-carboxamide]
Sel cat. B (cathepsin B): ++ (++ means a Ki(cathepsin B)/Ki(calpain) ratio of ≧30) | Sel cat. K (cathepsin K): ++ (++ means a Ki(cathepsin K)/Ki(calpain) ratio of ≧30) | Sel cat. L (cathepsin L): ++ (++ means a Ki(cathepsin L)/Ki(calpain) ratio of ≧50)

NC(=O)C(=O)C(Cc1ccccc1)NC(=O)c1cccnc1-n1ccc(-c2cccc3cnccc23)n1 (stereo not shown) [Example 156, N-[3-Amino-2,3-dioxo-1-(phenylmethyl)propyl]-2-(3-isoquinolin-5-yl-1H-pyrazol-1-yl)pyridine-3-carboxamide]
Sel cat. B (cathepsin B): + (+ means 10≦Ki(cathepsin B)/Ki(calpain)<30) | Sel cat. S (cathepsin S): ++ (++ means a Ki(cathepsin S)/Ki(calpain) ratio of ≧100) | Sel cat. L (cathepsin L): + (+ means 30≦Ki(cathepsin L)/Ki(calpain)<50)

N#Cc1cnc(-n2ccc(-c3ccccc3F)n2)c(C(=O)NC(Cc2ccccc2)C(=O)C(N)=O)c1 (stereo not shown) [Example 188, N-[3-Amino-2,3-dioxo-1-(phenylmethyl)propyl]-5-cyano-2-[3-(2-fluorophenyl)-1H-pyrazol-1-yl]pyridine-3-carboxamide]
Sel cat. K (cathepsin K): ++ (++ means a Ki(cathepsin K)/Ki(calpain) ratio of ≧30) | Sel cat. L (cathepsin L): ++ (++ means a Ki(cathepsin L)/Ki(calpain) ratio of ≧50)

NC(=O)C(=O)C(Cc1ccccc1)NC(=O)c1cccnc1-n1ccc(C2CCCCC2)n1 (stereo not shown) [Example 192, N-[3-Amino-2,3-dioxo-1-(phenylmethyl)propyl]-2-(3-cyclohexyl-1H-pyrazol-1-yl)pyridine-3-carboxamide]
Sel cat. S (cathepsin S): ++ (++ means a Ki(cathepsin S)/Ki(calpain) ratio of ≧100) | Sel cat. K (cathepsin K): + (+ means 10≦Ki(cathepsin K)/Ki(calpain)<30) | Sel cat. L (cathepsin L): ++ (++ means a Ki(cathepsin L)/Ki(calpain) ratio of ≧50)

N-{3-Amino-1-[(4-fluorophenyl)methyl]-2,3-dioxopropyl}-2-[3-(2,3-dichlorophenyl)-1H-pyrazol-1-yl]pyridine-3-carboxamide [Example 161]
Sel cat. B (cathepsin B): + (+ means 10≦Ki(cathepsin B)/Ki(calpain)<30) | Sel cat. S (cathepsin S): ++ (++ means a Ki(cathepsin S)/Ki(calpain) ratio of ≧100) | Sel cat. L (cathepsin L): + (+ means 30≦Ki(cathepsin L)/Ki(calpain)<50)

Reference: US9139557B2, “Carboxamide compounds and their use as calpain inhibitors” (Abbott GmbH & Co. KG, priority 2006, dated 2015)
